Laboratory results reported in patent US20250154169A1, “COMPOUNDS AND METHODS FOR MODULATING SPLICING” (REMIX THERAPEUTICS INC., priority 2021, published 2025).
Read-outs that look alike come from different tables or passages of the source.

Experiments:
Assay type in all cases: cell-based, human
HTT mRNA [1] = test: Splicing RT-qPCR assay, HTT canonical (CJ) and alternative (AJ) junction mRNA; settings: Homo sapiens, Table 3B; for AC50: alternative junction mRNA, read-out: HTT AJ (AC50, increase in AJ mRNA); for IC50: canonical junction mRNA, read-out: HTT CJ (IC50, decrease in CJ mRNA)
How it was run: (§1)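 One-step RT-qPCR on cell lysates, CJ and AJ isoforms quantified; housekeeping normalization GAPDH/GUSB (K562) or PPIA (A673). Cells: A673 in DMEM/10% FBS or K562 in IMDM/10% FBS. Compounds 11-pt 3-fold, top 10 uM, 24 h, 37 °C, 5% CO2.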

MYB mRNA = test: Splicing RT-qPCR assay, MYB canonical (CJ) and alternative (AJ) junction mRNA; settings: Homo sapiens; for AC50: alternative junction mRNA, read-out: MYB AJ (AC50, increase in AJ mRNA)
How it was run: as §1

SMN2 mRNA = test: Splicing RT-qPCR gene panel, SMN2 canonical junction (CJ) mRNA; settings: Homo sapiens, Tables 4A/4B, read-out: SMN2 (IC50, decrease in CJ mRNA, gene panel)
How it was run: (§2)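 First, A673 cells adhered 24 h before dosing, while K562 cells were plated and dosed directly. Both lines were then exposed to compound for 24 h at 37 °C, 5% CO2, top concentration 10 uM. Finally, lysates underwent RT-qPCR of the canonical junction, with ΔΔCt-based relative quantification.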

Target C mRNA = test: Splicing RT-qPCR gene panel, Target C canonical junction (CJ) mRNA; settings: Homo sapiens, Tables 4A/4B, read-out: Target C (IC50, decrease in CJ mRNA, gene panel)
How it was run: as §2

HTT mRNA [2] = test: Splicing RT-qPCR gene panel, HTT canonical junction (CJ) mRNA; settings: Homo sapiens, Tables 4A/4B, read-out: HTT (IC50, decrease in CJ mRNA, gene panel)
How it was run: as §2

[3] = Table 3B, canonical junction mRNA, RT-qPCR, read-out: MYB CJ (IC50, decrease in CJ mRNA)
[4] = Tables 4A/4B, canonical junction qPCR panel, read-out: MYB (IC50, decrease in CJ mRNA, gene panel)

| IC50 (HTT mRNA [1]) [nM] | IC50 (MYB mRNA; [3]) [nM] | IC50 (MYB mRNA; [4]) [nM] | IC50 (SMN2 mRNA) [nM] | IC50 (Target C mRNA) [nM] | IC50 (HTT mRNA [2]) [nM] | Compound | AC50 (HTT mRNA [1]) [nM] | AC50 (MYB mRNA; Table 3B, RT-qPCR) [nM] |
| --- | --- | --- | --- | --- | --- | --- | --- | --- |
| < 100 | < 100 | < 100 | < 100 | 100 to 1000 | < 100 | Cc1cn2cc(NC(=O)c3ccc(N4CCNCC4)c4nc(C)nn34)cc(F)c2n1 [Compound 946] | 100 to 1000 | < 100 |
| < 100 | < 100 | < 100 | < 100 | < 100 | < 100 | COc1c(NC(=O)c2ccc(N3CCNCC3)c3nc(C)nn23)cn2cc(C)nc2c1F [Compound 949] | < 100 | < 100 |
| 100 to 1000 | < 100 | < 100 | < 100 | > 10000 | 100 to 1000 | CCn1cc2c(N3CCNCC3)ncc(C(=O)Nc3cc(F)c4nc(C)cn4c3)c2n1 [Compound 950] | 100 to 1000 | 100 to 1000 |
| 100 to 1000 | 100 to 1000 | 100 to 1000 | < 100 | 100 to 1000 | 100 to 1000 | CCn1cc2c(N3C[C@@H](C)N[C@@H](C)C3)ncc(C(=O)Nc3cc(F)c4nc(C)cn4c3)c2n1 [Compound 952] | 100 to 1000 | 100 to 1000 |
| 1000 to 10000 | 100 to 1000 | 100 to 1000 | < 100 | 1000 to 10000 | 1000 to 10000 | CCn1cc2c(N3CCC(NC)C3)ncc(C(=O)Nc3cc(F)c4nc(C)cn4c3)c2n1 (stereo not drawn) [Compound 953] | 1000 to 10000 | 100 to 1000 |
| 1000 to 10000 | 100 to 1000 | 100 to 1000 | < 100 | 1000 to 10000 | 1000 to 10000 | CCn1cc2c(N3CCN(C)CC3)ncc(C(=O)Nc3cc(F)c4nc(C)cn4c3)c2n1 [Compound 954] | 1000 to 10000 | 100 to 1000 |
| 100 to 1000 | < 100 | < 100 | < 100 | > 10000 | 100 to 1000 | Cc1cn2cc(NC(=O)c3ccc(N4CCNCC4)c4cc(CO)nn34)cc(F)c2n1 [Compound 955] | 1000 to 10000 | < 100 |
| < 100 | < 100 | < 100 | < 100 | 100 to 1000 | < 100 | CCNC1CCN(c2ccc(C(=O)Nc3cc(F)c4nc(C)cn4c3)n3nc(CO)cc23)C1 (stereo not drawn) [Compound 956] | 100 to 1000 | < 100 |
| 100 to 1000 | < 100 | < 100 | < 100 | > 10000 | 100 to 1000 | Cc1cn2cc(NC(=O)c3ccc(N4CC[C@@H](NC5CC5)C4)c4nc(C)nn34)cc(F)c2n1 [Compound 958] | 1000 to 10000 | < 100 |
| 100 to 1000 | < 100 | < 100 | < 100 | 100 to 1000 | 100 to 1000 | CCNC1CCN(c2ccc(C(=O)Nc3cc(F)c4nc(C)cn4c3)n3nc(CC)cc23)C1 (stereo not drawn) [Compound 959] | 100 to 1000 | < 100 |
| 100 to 1000 | 100 to 1000 | 100 to 1000 | < 100 | 100 to 1000 | 100 to 1000 | CCc1cc2c(N3CCNCC3)ccc(C(=O)Nc3cc(F)c4nc(C)cn4c3)n2n1 [Compound 960] | 100 to 1000 | 100 to 1000 |
| 100 to 1000 | < 100 | < 100 | < 100 | 100 to 1000 | 100 to 1000 | CCNC1CCN(c2ccc(C(=O)Nc3cc(F)c4nc(C)cn4c3)n3nc(C(C)O)cc23)C1 (stereo not drawn) [Compound 961] | 100 to 1000 | < 100 |
